Laboratory results published in patent US20260297092A1, “PYRAZOLOPYRIMIDINE DERIVATIVES AS INHIBITORS OF NLRP3” (Takeda Pharmaceutical Company Limited, priority 2023, published 2026).

What was measured:
[1] = system: NLRP3 inflammasome (IL-1β production in THP-1 cells); test: IL-1β TR-FRET Assay (percentage of inhibition at 300 nM, 6 μM or 10 μM); type: cell-based, human; details: Homo sapiens, LPS priming, ATP activation; for inhibition at 0.3 µM: THP-1, 300 nM, read-out: IL-1β inhibitory rate at 300 nM (%); for inhibition at 6 µM: THP-1, 6 μM, read-out: IL-1β inhibitory rate at 6 μM (%)
Summary of the method: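 Percent inhibition of IL-1β used DMSO wells as 0% and 3 μM MCC-950 wells as full inhibition, with supernatant read by HTRF. Beforehand, IFN-γ-differentiated (25 ng/mL, 24 h), LPS-primed (50 ng/mL, 24 h) THP-1 cells received compound 30 min before inflammasome activation by 20 mM ATP for 2 h.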

[2] = system: TNF-α (NF-κB pathway, THP-1 cells); test: TNF-α Assay (IC50); type: cell-based, human; details: Homo sapiens, 600 ng/mL LPS, 3 hours
Summary of the method: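 Supernatant TNF-α quantified by ELISA after 3 h stimulation with 600 ng/mL LPS at 37 °C, following 30 min compound preincubation. Cells: IFN-differentiated (25 ng/mL, 24 h) THP-1 macrophages, 40,000/well, serum-free. IC50 by sigmoidal fit of % inhibition, with TPCA-1 as 100% control.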

Row | SMILES | inhibition at 0.3 µM [1] [%] | IC50 [2] [µM] | inhibition at 6 µM [1] [%] | inhibition at 10 µM ([1]; THP-1, 10 μM, read-out: IL-1β inhibitory rate at 10 μM (%)) [%]
1 | COC[C@@H](C)Oc1nc2nn(-c3c(F)cc(C4CC4)cc3C(F)F)cc2c(=O)[nH]1 [Example 207, 2-[4-cyclopropyl-2-(difluoromethyl)-6-fluoro-phenyl]-6-{[(2R)-1-methoxypropan-2-yl]oxy}-2,5-dihydro-4H-pyrazolo[3,4-d]pyrimidin-4-one] | 98 | > 30 | – | –
2 | COc1nc2nn(-c3c(C)cc(C4(F)CC4)cc3F)cc2c(=O)[nH]1 [Example 208, 2-[2-fluoro-4-(1-fluorocyclopropyl)-6-methylphenyl]-6-methoxy-2,5-dihydro-4H-pyrazolo[3,4-d]pyrimidin-4-one] | 102 | > 30 | – | –
3 | COCCOc1nc2nn(-c3c(F)cc(C4CC4)cc3C(F)F)cc2c(=O)[nH]1 [Example 186, 2-[4-cyclopropyl-2-(difluoromethyl)-6-fluorophenyl]-6-(2-methoxyethoxy)-2,5-dihydro-4H-pyrazolo[3,4-d]pyrimidin-4-one] | 100 | > 30 | – | –
4 | CCOc1nc2nn(-c3c(C)cc(C4CC4)cc3COC)cc2c(=O)[nH]1 [Example 164, 2-[4-cyclopropyl-2-(methoxymethyl)-6-methylphenyl]-6-ethoxy-2,5-dihydro-4H-pyrazolo[3,4-d]pyrimidin-4-one] | 95 | > 30 | – | –
5 | CCCCc1nc2nn(-c3c(C)cc(C)cc3O)cc2c(=O)[nH]1 [Example 17, 6-butyl-2-(2-hydroxy-4,6-dimethylphenyl)-2,5-dihydro-4H-pyrazolo[3,4-d]pyrimidin-4-one] | 99 | > 30 | – | –
6 | Cc1ccc(-n2cc3c(=O)[nH]c(OCC(C)O)nc3n2)c(C)c1 (racemic) [Example 89, 2-(2,4-dimethylphenyl)-6-(2-hydroxypropoxy)-2,5-dihydro-4H-pyrazolo[3,4-d]pyrimidin-4-one] | 79 | > 30 | – | –
7 | CCOc1nc2nn(-c3c(F)cc(C4CC4)cc3Br)cc2c(=O)[nH]1 [Example 114, 2-(2-bromo-4-cyclopropyl-6-fluorophenyl)-6-ethoxy-2,5-dihydro-4H-pyrazolo[3,4-d]pyrimidin-4-one] | 98 | > 30 | – | –
8 | Cc1cc(C)c(-n2cc3c(=O)[nH]c(-c4cccn(C)c4=O)nc3n2)c(O)c1 [Example 66, 2-(2-hydroxy-4,6-dimethylphenyl)-6-(1-methyl-2-oxo-1,2-dihydropyridin-3-yl)-2,5-dihydro-4H-pyrazolo[3,4-d]pyrimidin-4-one] | 97 | > 30 | – | –
9 | CCOc1nc2nn(-c3c(F)cc(C)cc3C(F)(F)F)cc2c(=O)[nH]1 [Example 73, 6-ethoxy-2-[2-fluoro-4-methyl-6-(trifluoromethyl)phenyl]-2,5-dihydro-4H-pyrazolo[3,4-d]pyrimidin-4-one] | 97 | > 30 | – | –
10 | COC1(c2nc3nn(-c4c(C)cc(C5CC5)cc4C)cc3c(=O)[nH]2)CC1 [Example 266, 2-(4-cyclopropyl-2,6-dimethylphenyl)-6-(1-methoxycyclopropyl)-2,5-dihydro-4H-pyrazolo[3,4-d]pyrimidin-4-one] | – | > 30 | 98 | –
11 | CCOc1nc2nn(-c3c(Br)cc(C4CC4)cc3COC)cc2c(=O)[nH]1 [Example 155, 2-[2-bromo-4-cyclopropyl-6-(methoxymethyl)phenyl]-6-ethoxy-2,5-dihydro-4H-pyrazolo[3,4-d]pyrimidin-4-one] | 99 | > 30 | – | –
12 | COc1ccc(-c2nc3nn(-c4c(C)cc(C)cc4O)cc3c(=O)[nH]2)nc1 [Example 21, 2-(2-hydroxy-4,6-dimethylphenyl)-6-(5-methoxypyridin-2-yl)-2,5-dihydro-4H-pyrazolo[3,4-d]pyrimidin-4-one] | 98 | > 30 | – | –
13 | CCOc1nc2nn(-c3c(C)cc(C)cc3Cl)cc2c(=O)[nH]1 [Example 70, 2-(2-chloro-4,6-dimethylphenyl)-6-ethoxy-2,5-dihydro-4H-pyrazolo[3,4-d]pyrimidin-4-one] | 100 | > 30 | – | –
14 | CCOc1nc2nn(-c3c(F)cc(C)cc3C3CC3(F)F)cc2c(=O)[nH]1 (stereo not drawn) [Example 79, 2-[2-(2,2-difluorocyclopropyl)-6-fluoro-4-methylphenyl]-6-ethoxy-2,5-dihydro-4H-pyrazolo[3,4-d]pyrimidin-4-one] | 95 | > 30 | – | –
15 | CCOc1nc2nn(-c3ccc(C)cc3O)c(CC)c2c(=O)[nH]1 [Example 140, 6-ethoxy-3-ethyl-2-(2-hydroxy-4-methylphenyl)-2,5-dihydro-4H-pyrazolo[3,4-d]pyrimidin-4-one] | 93 | > 30 | – | –
16 | CCOc1nc2nn(-c3ccc(C(C)C)cc3O)c(C)c2c(=O)[nH]1 [Example 44, 6-ethoxy-2-[2-hydroxy-4-(propan-2-yl)phenyl]-3-methyl-2,5-dihydro-4H-pyrazolo[3,4-d]pyrimidin-4-one] | 101 | > 30 | – | –
17 | CCOc1nc2nn(-c3c(C)cc(-n4cccn4)cc3C)cc2c(=O)[nH]1 [Example 139, 2-[2,6-dimethyl-4-(1H-pyrazol-1-yl)phenyl]-6-ethoxy-2,5-dihydro-4H-pyrazolo[3,4-d]pyrimidin-4-one] | – | > 30 | – | 95
18 | CCOc1nc2nn(-c3ccc(C)cc3O)c(C)c2c(=O)[nH]1 [Example 127, 6-ethoxy-2-(2-hydroxy-4-methylphenyl)-3-methyl-2,5-dihydro-4H-pyrazolo[3,4-d]pyrimidin-4-one] | 98 | > 30 | – | –
19 | COCc1nc2nn(-c3c(C)cc(C)cc3O)cc2c(=O)n1C [Example 8, 2-(2-hydroxy-4,6-dimethylphenyl)-6-(methoxymethyl)-5-methyl-2,5-dihydro-4H-pyrazolo [3,4-d]pyrimidin-4-one] | 92 | > 30 | – | –
20 | CCn1ncc(-c2nc3nn(-c4c(C)cc(C5CC5)cc4C)cc3c(=O)[nH]2)n1 [Example 257, 2-(4-cyclopropyl-2,6-dimethylphenyl)-6-(2-ethyl-2H-1,2,3-triazol-4-yl)-2,5-dihydro-4H-pyrazolo[3,4-d]pyrimidin-4-one] | – | > 30 | 99 | –
21 | Cc1ccc(-n2cc3c(=O)[nH]c(OCC(C)(F)F)nc3n2)c(O)c1 [Example 86, 6-(2,2-difluoropropoxy)-2-(2-hydroxy-4-methylphenyl)-2,5-dihydro-4H-pyrazolo[3,4-d]pyrimidin-4-one] | 85 | > 30 | – | –
22 | CCOc1nc2nn(-c3c(F)cc(C4CC4)cc3Cl)cc2c(=O)[nH]1 [Example 137, 2-(2-chloro-4-cyclopropyl-6-fluorophenyl)-6-ethoxy-2,5-dihydro-4H-pyrazolo[3,4-d]pyrimidin-4-one] | 98 | > 30 | – | –
23 | CCOc1nc2nn(-c3c(C)cc(Br)cc3C(F)F)cc2c(=O)[nH]1 [Example 213, 2-[4-bromo-2-(difluoromethyl)-6-methylphenyl]-6-ethoxy-2,5-dihydro-4H-pyrazolo[3,4-d]pyrimidin-4-one] | 104 | > 30 | – | –
24 | CCOc1nc2nn(-c3c(F)cc(C)cc3Br)cc2c(=O)[nH]1 [Example 57, 2-(2-bromo-6-fluoro-4-methylphenyl)-6-ethoxy-2,5-dihydro-4H-pyrazolo[3,4-d]pyrimidin-4-one] | 99 | > 30 | – | –
25 | Cc1cc(C2CC2)cc(C)c1-n1cc2c(=O)[nH]c(OCCOC(F)F)nc2n1 [Example 288, 2-(4-cyclopropyl-2,6-dimethylphenyl)-6-[2-(difluoromethoxy)ethoxy]-2,5-dihydro-4H-pyrazolo[3,4-d]pyrimidin-4-one] | – | > 30 | 99 | –
26 | Cc1ccc(-n2nc3nc(OCC(C)(F)F)[nH]c(=O)c3c2C)c(O)c1 [Example 91, 6-(2,2-difluoropropoxy)-2-(2-hydroxy-4-methylphenyl)-3-methyl-2,5-dihydro-4H-pyrazolo[3,4-d]pyrimidin-4-one] | 76 | > 30 | – | –
27 | CCOc1nc2nn(-c3c(F)cc(C)cc3C(F)F)cc2c(=O)[nH]1 [Example 63, 2-[2-(difluoromethyl)-6-fluoro-4-methylphenyl]-6-ethoxy-2,5-dihydro-4H-pyrazolo[3,4-d]pyrimidin-4-one] | 100 | > 30 | – | –
28 | CCOc1nc2nn(-c3c(F)cc(Br)cc3Cl)cc2c(=O)[nH]1 [Example 133, 2-(4-bromo-2-chloro-6-fluorophenyl)-6-ethoxy-2,5-dihydro-4H-pyrazolo[3,4-d]pyrimidin-4-one] | 96 | > 30 | – | –
29 | COCc1nc2nn(-c3c(F)cc(C4CC4)cc3CC(F)F)cc2c(=O)[nH]1 [Example 322, 2-[4-cyclopropyl-2-(2,2-difluoroethyl)-6-fluorophenyl]-6-(methoxymethyl)-2,5-dihydro-4H-pyrazolo[3,4-d]pyrimidin-4-one] | – | > 30 | 104 | –
30 | Cc1cc(C)c(-n2cc3c(=O)[nH]c(C(F)F)nc3n2)c(O)c1 [Example 94, 6-(difluoromethyl)-2-(2-hydroxy-4,6-dimethylphenyl)-2,5-dihydro-4H-pyrazolo[3,4-d]pyrimidin-4-one] | 83 | > 30 | – | –
